Data: US20080200405A1, “Drug Resistance Reversal In Neoplastic Disease” (priority 2007, published 2008)
Where two headings read alike, the source gives them in different places.

Columns and labels:
Lipid peroxidation = Lipid peroxidation inhibition (method of Ohkawa); type: biochemical; conditions: for Lipid Peroxidation Inhibition, % Inhibition: 10 uM
[1] = system: Doxorubicin resistant SaOS2 cells; assay: Cancer cell viability (MTT) in the presence or absence of doxorubicin; type: cell-based, human; conditions: compound 50 ug/mL, 3 days
TNFα = assay: Measurement of LPS Induced-TNFα in THP-1 Cells; type: cell-based, human; conditions: Homo sapiens
Experimental: The lipid peroxidation assay method of Ohkawa, H.; Ohishi, N.; Yaki, K. Anal. Biochem. 1979, 95, 351 was used to evaluate […]. […] […] Cells were collected and spun at 1500 g for 10 minutes. Supernatant was collected and analyzed for TNFα.
Mean Percent Inhibition of TNF-alpha by compounds of the present invention is set forth in Table B. TNF-alpha inhibition data is set forth in Table B-1. OT-551 was used in both native form and in the form of nanoparticles. […] Other nitrogenous heterocyclic species of the invention are expected to show similar improvement in efficacy when disposed in nanoparticulate form.

[2] = system: bFGF-induced angiogenesis in the CAM model; assay: bFGF (FGF2)-stimulated CAM model; type: in vivo, chicken; conditions: bFGF/FGF2 1 ug, 30 ug injected; for inhibition in vivo at 0.03 mg: Gallus gallus, read-out: % Inhibition ± SEM
Experimental: In vivo neovascularization was examined by the method previously described by Auerbach et al. (J. Dev. Biol. 41:391-394 (1974)). Ten-day old chicken embryos were purchased from Spafas, Inc. (Preston, Conn.) and were incubated at 37° C. with 55% relative humidity. In the dark, with the aid of a candling lamp, a small hole was punctured in the shell concealing the air sac with a hypodermic needle. A second hole was punctured in the shell on the broadside of the egg directly over an […] portion of the embryonic membrane, as observed during candling. An artificial air sac was created beneath the second hole by applying gentle vacuum to the first hole using a small rubber squeeze bulb. The vacuum caused the chorioallantoic membrane (CAM) to separate from the shell.
For inducing angiogenesis, sterile filter disks were saturated with bFGF (1 μg/ml) (Life Technologies, Gaithersburg, Md.) or other pro-angiogenesis factors and control disks were saturated with PBS without Calcium and Magnesium. Control disks were saturated with PBS without Calcium and Magnesium.
After 24-48 hr, 10-25 ul of test agent was injected intravenously or added topically into the CAM membrane. Eight-Ten eggs/treatment group were used.
The number of vessel branch points contained in a circular region equal to the area of a filter disk was counted for each section. Percent inhibition data are expressed as the quotient of the experimental value minus the negative control value divided by the difference between the positive control value and the negative control value. One image was counted in each CAM preparation, and findings from eight CAM preparations were analyzed for each treatment condition. In addition, each experiment was performed three times. The resulting angiogenesis index is the mean ±SEM (Standard Error of Measurement) of new branch points in each set of treatment. Statistical analysis of blood vessel branching patterns are performed by 1-way analysis of variance (ANOVA) comparing experimental with corresponding control groups. Statistical significance differences are assessed at P value of <0.05.
The CAM model protocol was modified to include stimulus with bFGF. The effect of injected OT 551 was assayed.
TP-H was applied to the CAM model study to determine its respective anti-angiogenesis effects according to the materials and methods provided in Example 1. Basic Fibroblast Growth Factor (bFGF) was used to induce angiogenesis in the CAM model.
Compounds were introduced via injection to the CAM model study to determine its respective anti-angiogenesis effects according to the materials and methods provided in Example 1. bFGF was used to induce angiogenesis in the CAM model.

Angiogenesis in CAM = assay: Neovascularization on the CAM (Inhibition of Angiogenesis in CAM); type: in vivo, chicken; conditions: 300 ug
Experimental: In vivo neovascularization was examined by the method previously described by Auerbach et al. (J. Dev. Biol. 41:391-394 (1974)). Ten-day old chicken embryos were purchased from Spafas, Inc. (Preston, Conn.) and were incubated at 37° C. with 55% relative humidity. In the dark, with the aid of a candling lamp, a small hole was punctured in the shell concealing the air sac with a hypodermic needle. A second hole was punctured in the shell on the broadside of the egg directly over an […] portion of the embryonic membrane, as observed during candling. An artificial air sac was created beneath the second hole by applying gentle vacuum to the first hole using a small rubber squeeze bulb. The vacuum caused the chorioallantoic membrane (CAM) to separate from the shell. A window, approximately 1.0 cm^2, was cut in the shell over the dropped CAM with the use of a small crafts grinding wheel (Dremel, Division of Emerson Electric Company Racine, Wis.). The window allowed direct access to the underlying CAM. A pro-angiogenic agent was added to induce new blood vessel branches on the CAM of 10-day old embryos. […] Louis, Mo.) in a solution (95% ethanol and water). The disks were subsequently air dried under sterile conditions. The disks were then suspended in PBS (Phosphate Buffered Saline) and placed on growing CAMs. […] For inducing angiogenesis, sterile filter disks were saturated with bFGF (1 μg/ml) (Life Technologies, Gaithersburg, Md.) or other pro-angiogenesis factors and control disks were saturated with PBS without Calcium and Magnesium. Control disks were saturated with PBS without Calcium and Magnesium. Using sterile forceps one filter/CAM was placed from the window. The window was sealed with Highland brand transparent tape. After 24-48 hr, 10-25 ul of test agent was injected intravenously or added topically into the CAM membrane. Eight-Ten eggs/treatment group were used. CAM tissue directly beneath filter disk was harvested from embryos treated 48 hours prior with compound or control. Tissues were washed three times with PBS. Sections were placed in a 35-mm petri dish (Nalge Nunc, Rochester, N.Y.) and examined under a SV6 stereomicroscope (Karl Zeiss, Thornwood, N.Y.) at 50× magnification. […] Digital images of CAM sections from Petri dish were collected using a 3-CCD color video camera system (Toshiba America, New York, N.Y.). These images were analyzed using Image-Pro Plus software (Media Cybernetics, Silver Spring, Md.). The number of branch points in blood vessels within the circular region superimposed to the area of a filter disk was counted for each section. […] Tissues were washed three times with PBS. Sections were placed in a 35-mm Petri dish (Nalge Nunc; Rochester, N.Y.) and were examined under a SV6 stereomicroscope (Karl Zeiss; Thornwood, N.Y.) at 50× magnification. Digital images of CAM sections adjacent to filters were collected using a 3-CCD color video camera system (Toshiba America; New York, N.Y.) and analyzed with the Image-Pro Plus software (Media Cybernetics; Silver Spring, Md.). The number of vessel branch points contained in a circular region equal to the area of a filter disk was counted for each section. Percent inhibition data are expressed as the quotient of the experimental value minus the negative control value divided by the difference between the positive control value and the negative control value. One image was counted in each CAM preparation, and findings from eight CAM preparations were analyzed for each treatment condition. In addition, each experiment was performed three times. The resulting angiogenesis index is the mean ±SEM (Standard Error of Measurement) of new branch points in each set of treatment. Statistical analysis of blood vessel branching patterns are performed by 1-way analysis of variance (ANOVA) comparing experimental with corresponding control groups.

[3] = system: Human whole blood clot formation
Experimental: TEG: Human whole blood (±drugs) was added to the cylindrical cuvette (“cup”). […] The cup oscillates 4°45′ ( 1/12 radian) in either direction every 4.5 seconds, with a 1-second mid-cycle stationary period, resulting in a frequency of 0.1 Hz and a maximal shear rate of 0.1 per second. The pin was suspended by a torsion wire that acts as a torque transducer. […] The torque experienced by the pin (relative to the oscillation of the cup) was plotted as a function of time (Forsythe, S. A. M. S. K. M. S. (2000): “Comparative In Vitro Efficacy of Different Platelet Glycoprotein IIb/IIIa Antagonists on Platelet-Mediated Clot Strength Induced by Tissue Factor With Use of Thromboelastography.” Arteriosclerosis, Thrombosis, and Vascular Biology 20: 1162).
(Data represent mean ±SD, n=6 (blood form normal healthy volunteers), *P<0.01 as compared to control)

[4] = THP-1, compound 10 uM, 5 ng/mL LPS, read-out: Mean Percent Inhibition of TNF-alpha using 5 ng/mL LPS
[5] = TEG, human whole blood, Bevacizumab 1 ng/cup, Comp. 4 0 uM, *P<0.01 vs control

Molecule	% Lipid Peroxidation inhibition (at 1 uM) (Lipid peroxidation) [%]	Lipid Peroxidation Inhibition, % Inhibition (Lipid peroxidation) [%]	Mean OD (×10^−3), MTT viability ([1]; Dox. 10^−6 M (+))	Mean OD (×10^−3), MTT viability ([1]; absence of Dox. (−))	inhibition at 10 µM (TNFα; [4]) [%]	IC50 (TNFα; THP-1, read-out: TNFalpha IC50) [µM]	inhibition in vivo at 0.03 mg [2] [%]	Branch pts ± SEM [2]	melting point	inhibition at 10 µM (TNFα; THP-1, read-out: Mean Percent Inhibition of TNF-alpha using 5 ng/mL LPS) [%]	IC50 (TNFα; THP-1, read-out: TNFalpha IC50 (uM)) [µM]	Inhibition of Angiogenesis in CAM, % Inhibition (Angiogenesis in CAM) [%]	MA in comparison to native blood [3]	initiation of clot formation in comparison to native blood [3]	Clot Strength - MA [3, 5]	Time to Clot Initiation R [3, 5]
COC1CC(C)(C)N(O)C(C)(C)C1.Cl [Compound 1, 1-hydroxy-4-methoxy-2,2,6,6-tetramethylpiperidine hydrogen chloride]	74.1	90.8	246.50 ×10^−3	524.75 ×10^−3	50 ± 9	16.8	89.9 ± 18	74 ± 8.6	–	–	–	–	–	–	–	–
CC(=O)NC1CC(C)(C)N(O)C(C)(C)C1.Cl [Compound 2, 1-hydroxy-4-acetamido-2,2,6,6-tetramethylpiperidine]	–	81.0	249.25 ×10^−3	496.33 ×10^−3	64 ± 5	17	76.4 ± 9.9	84.7 ± 11.1	180.5 °C (dec.)	–	–	–	–	–	–	–
CC1(C)CC(N2CCOCC2)CC(C)(C)N1O.Cl [Compound 3, 4-(2,2,6,6-tetramethylpiperidin-1-hydroxy-4-yl)morpholine hydrogen chloride]	–	77.8	289.50 ×10^−3	640.25 ×10^−3	60 ± 2	11.6	54.7 ± 7.9	95.1 ± 5.6	–	–	–	–	–	–	–	–
CC1(C)CC(=O)CC(C)(C)N1O [Compound 5, 1-Hydroxy-2,2,6,6-tetramethyl-piperidin-4-one]	71.0	86.3	245.50 ×10^−3	556.50 ×10^−3	–	–	26.5 ± 7.9	86.1 ± 9.8	–	66 ± 7	22.2	–	–	–	–	–
CC1C(O)C(C)C(C)(C)N(O)C1(C)C.Cl (stereo not shown) [Compound 6, 2,2,3,5,6,6-Hexamethyl-piperidine-1,4-diol hydrogen chloride salt]	70.5	89.0	185.25 ×10^−3	367.00 ×10^−3	54 ± 6	29.4	40.4 ± 9.3	78.6 ± 7.3	191.5 °C (dec.)	–	–	–	–	–	–	–
CC1(C)CC(O)C(C)(C)N1O (stereo not shown) [Compound 7, 2,2,5,5-Tetramethyl-pyrrolidine-1,3-diol]	–	82.9	241.25 ×10^−3	540.25 ×10^−3	69 ± 2	44.9	124 ± 8.4	40.8 ± 9.7	–	–	–	–	–	–	–	–
CC1(C)CC(NS(C)(=O)=O)CC(C)(C)N1O [Compound 10, 1-hydroxy-4-methanesulfonamido-2,2,6,6-tetramethylpiperidine]	–	85.8	250.00 ×10^−3	456.00 ×10^−3	–	≥ 100	78.2 ± 9.9	60.4 ± 5.0	–	–	–	–	–	–	–	–
CC1(C)CC(NC(=O)N2CCOCC2)CC(C)(C)N1O.Cl [Compound 11, N-(2,2,6,6-tetramethylpiperidin-1-hydroxyl-4-yl)morpholine-4-carboxamide hydrogen chloride]	–	82.7	267.25 ×10^−3	470.25 ×10^−3	24 ± 5	20.7	71 ± 8.8	64.0 ± 5.1	158.1 °C (dec.)	–	–	–	–	–	–	–
O=C1O[C@H]([C@@H](O)CO)C(O)=C1O [Vitamin C, reference compound]	–	–	–	–	–	–	–	–	–	–	–	15 ± 7	–	–	–	–
Bevacizumab: a monoclonal antibody against vascular endothelial growth factor used to treat cancer by inhibiting angiogenesis [reference compound]	–	–	–	–	–	–	–	–	–	–	–	–	approximately six times larger MA	approximately two to three fold faster	33.8 ± 5.6* mm	7.8 ± 1.1* min
Vitamin E [reference compound]	–	–	–	–	–	–	–	–	–	–	–	22 ± 6	–	–	–	–
